From the supplement of paper PMC9663587

How the values were obtained:
Cediranib/AZD2171 = compound: COc1cc2c(Oc3ccc4[nH]c(C)cc4c3F)ncnc2cc1OCCCN1CCCC1 [Cediranib/AZD2171]
[1] = compound: CO[C@@H](C)Cn1c(=O)n(C)c2cnc3ccc(-c4cncc(C(C)(C)O)c4)cc3c21
AZD1775 = compound: C=CCn1c(=O)c2cnc(Nc3ccc(N4CCN(C)CC4)cc3)nc2n1-c1cccc(C(C)(C)O)n1 [AZD1775]
[2] = compound: CC(=O)Nc1cccc(-n2c(=O)n(C3CC3)c(=O)c3c(Nc4ccc(I)cc4F)n(C)c(=O)c(C)c32)c1
THZ1 [3] = compound: T1, CN(C)C/C=C/C(=O)Nc1ccc(C(=O)Nc2cccc(Nc3ncc(Cl)c(-c4c[nH]c5ccccc45)n3)c2)cc1 [THZ1]
THZ531 [4] = compound: T2, CN(C)C/C=C/C(=O)Nc1ccc(C(=O)N2CCC[C@@H](Nc3ncc(Cl)c(-c4c[nH]c5ccccc45)n3)C2)cc1 [THZ531]
[5] = compound: CCCCOc1c(C(=O)c2c(F)cc(C)cc2F)c[nH]c2nncc1-2
Alpelisib/BYL719 = compound: Cc1nc(NC(=O)N2CCC[C@H]2C(N)=O)sc1-c1ccnc(C(C)(C)C(F)(F)F)c1 [Alpelisib/BYL719]
Saracatinib/AZD0530 = compound: CN1CCN(CCOc2cc(OC3CCOCC3)c3c(Nc4c(Cl)ccc5c4OCO5)ncnc3c2)CC1 [Saracatinib/AZD0530]
[6] = compound: COc1ccc2c(c1)[C@]1(C[C@H]1c1ccc3c(/C=C/c4ccc(CN5C[C@@H](C)O[C@@H](C)C5)cc4)n[nH]c3c1)C(=O)N2
YKL-5-124 = compound: C=CC(=O)Nc1ccc(C(=O)Nc2[nH]nc3c2CN(C(=O)N[C@H](CN(C)C)c2ccccc2)C3(C)C)cc1 [YKL-5-124]; assay: increase in dead-cell fraction, 72 h; higher = more death;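 further: breast cancer cell lines in 384-well plates, stained with Hoechst plus LIVE/DEAD far red dye and imaged, cells above an LDR intensity threshold counted dead, Hoechst-negative corpses included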
[7] = compound: CCc1cnn2c(NCc3ccc[n+]([O-])c3)cc(N3CCCC[C@H]3CCO)nc12; assay: as above
Neratinib/HKI272 = compound: CCOc1cc2ncc(C#N)c(Nc3ccc(OCc4ccccn4)c(Cl)c3)c2cc1NC(=O)/C=C/CN(C)C [Neratinib/HKI272]; assay: as above
THZ1 [8] = compound: T1, THZ1; assay: as above
THZ531 [9] = compound: T2, THZ531; assay: as above
[10] = compound: CC(=O)c1c(C)c2cnc(Nc3ccc(N4CCNCC4)cn3)nc2n(C2CCCC2)c1=O; assay: as above
BSJ-03-123 = compound: CC(=O)c1c(C)c2cnc(Nc3ccc(N4CCN(CCOCCOCCOCCNC(=O)COc5cccc6c5C(=O)N(C5CCC(=O)NC5=O)C6=O)CC4)cn3)nc2n(C2CCCC2)c1=O [BSJ-03-123]; assay: as above
LEE011/Ribociclib = compound: CN(C)C(=O)c1cc2cnc(Nc3ccc(N4CCNCC4)cn3)nc2n1C1CCCC1 [LEE011/Ribociclib]; assay: as above
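Wherever GR50, 72 h is given: breast cancer and non-malignant breast epithelial cell lines, Deep Dye Drop or Dye Drop imaging, nine half-log doses, GR normalized to time-zero plates and DMSO-only controls.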

For CAL851, the “GR50, 72 h” value (Cediranib/AZD2171) was 2.38 µM, the “GR50, 72 h” value [1] was less than 0.001 µM and the “GR50, 72 h” value (AZD1775) was 0.212 µM. For the same cell line, the “GR50, 72 h” value [2] was 0.0132 µM, the “GR50, 72 h” value (THZ1 [3]) was 0.0085 µM and the “GR50, 72 h” value (THZ531 [4]) was 0.0715 µM. For the same cell line, the “GR50, 72 h” value [5] was 0.00814 µM, the “GR50, 72 h” value (Alpelisib/BYL719) was 3.64 µM and the “GR50, 72 h” value (Saracatinib/AZD0530) was 0.871 µM. For the same cell line, the “GR50, 72 h” value [6] was 0.00209 µM, the “increase in dead-cell fraction” value (YKL-5-124; 0.001 µM) was 0.0613 and the “increase in dead-cell fraction” value (YKL-5-124; 0.003162 µM) was 0.0965. The “increase in dead-cell fraction” value (YKL-5-124; 0.01 µM) was 0.0961, the “increase in dead-cell fraction” value (YKL-5-124; 0.03162 µM) was 0.1 and the “increase in dead-cell fraction” value (YKL-5-124; 0.1 µM) was 0.12. For the same cell line, the “increase in dead-cell fraction” value (YKL-5-124; 0.3162 µM) was 0.15, the “increase in dead-cell fraction” value (YKL-5-124; 1 µM) was 0.096 and the “increase in dead-cell fraction” value (YKL-5-124; 3.162 µM) was 0.12. For the same cell line, the “increase in dead-cell fraction” value (YKL-5-124; 10 µM) was 0.402, the “increase in dead-cell fraction” value ([7]; 0.0001 µM) was -0.007 and the “increase in dead-cell fraction” value ([7]; 0.0003162 µM) was -0.005. For the same cell line, the “increase in dead-cell fraction” value ([7]; 0.001 µM) was 0.003, the “increase in dead-cell fraction” value ([7]; 0.003162 µM) was 0.0409 and the “increase in dead-cell fraction” value ([7]; 0.01 µM) was 0.2. The “increase in dead-cell fraction” value ([7]; 0.03162 µM) was 0.147, the “increase in dead-cell fraction” value ([7]; 0.1 µM) was 0.205 and the “increase in dead-cell fraction” value ([7]; 0.3162 µM) was 0.22. For the same cell line, the “increase in dead-cell fraction” value ([7]; 1 µM) was 0.217, the “increase in dead-cell fraction” value (Neratinib/HKI272; 0.0003162 µM) was -0.0016 and the “increase in dead-cell fraction” value (Neratinib/HKI272; 0.001 µM) was 0.0027. The “increase in dead-cell fraction” value (Neratinib/HKI272; 0.003162 µM) was 0.006, the “increase in dead-cell fraction” value (Neratinib/HKI272; 0.01 µM) was 0.0409 and the “increase in dead-cell fraction” value (Neratinib/HKI272; 0.03162 µM) was 0.113. For the same cell line, the “increase in dead-cell fraction” value (Neratinib/HKI272; 0.1 µM) was 0.199, the “increase in dead-cell fraction” value (Neratinib/HKI272; 0.3162 µM) was 0.29 and the “increase in dead-cell fraction” value (Neratinib/HKI272; 1 µM) was 0.344. For the same cell line, the “increase in dead-cell fraction” value (Neratinib/HKI272; 3.162 µM) was 0.542, the “increase in dead-cell fraction” value (THZ1 [8]; 0.0001 µM) was -0.0023 and the “increase in dead-cell fraction” value (THZ1 [8]; 0.0003162 µM) was -0.0015. The “increase in dead-cell fraction” value (THZ1 [8]; 0.001 µM) was 0.0049, the “increase in dead-cell fraction” value (THZ1 [8]; 0.003162 µM) was 0.0027 and the “increase in dead-cell fraction” value (THZ1 [8]; 0.01 µM) was 0.0075. The “increase in dead-cell fraction” value (THZ1 [8]; 0.03162 µM) was 0.0208, the “increase in dead-cell fraction” value (THZ1 [8]; 0.1 µM) was 0.053 and the “increase in dead-cell fraction” value (THZ1 [8]; 0.3162 µM) was 0.123. The “increase in dead-cell fraction” value (THZ1 [8]; 1 µM) was 0.402, the “increase in dead-cell fraction” value (THZ531 [9]; 0.0001 µM) was 0.0002 and the “increase in dead-cell fraction” value (THZ531 [9]; 0.0003162 µM) was 0.0044. The “increase in dead-cell fraction” value (THZ531 [9]; 0.001 µM) was -0.0008, the “increase in dead-cell fraction” value (THZ531 [9]; 0.003162 µM) was 0.0011 and the “increase in dead-cell fraction” value (THZ531 [9]; 0.01 µM) was 0.0061. For the same cell line, the “increase in dead-cell fraction” value (THZ531 [9]; 0.03162 µM) was 0.0125, the “increase in dead-cell fraction” value (THZ531 [9]; 0.1 µM) was 0.0297 and the “increase in dead-cell fraction” value (THZ531 [9]; 0.3162 µM) was 0.048. For the same cell line, the “increase in dead-cell fraction” value (THZ531 [9]; 1 µM) was 0.0747, the “increase in dead-cell fraction” value ([10]; 0.0003162 µM) was 0.0002 and the “increase in dead-cell fraction” value ([10]; 0.001 µM) was 0.0074. For the same cell line, the “increase in dead-cell fraction” value ([10]; 0.003162 µM) was -0.0015, the “increase in dead-cell fraction” value ([10]; 0.01 µM) was -0.0049 and the “increase in dead-cell fraction” value ([10]; 0.03162 µM) was -0.0041. The “increase in dead-cell fraction” value ([10]; 0.1 µM) was 0.0052, the “increase in dead-cell fraction” value ([10]; 0.3162 µM) was -0.004 and the “increase in dead-cell fraction” value ([10]; 1 µM) was -0.0071. For the same cell line, the “increase in dead-cell fraction” value ([10]; 3.162 µM) was -0.006, the “increase in dead-cell fraction” value (BSJ-03-123; 0.001 µM) was -0.0043 and the “increase in dead-cell fraction” value (BSJ-03-123; 0.003162 µM) was -0.0029. For the same cell line, the “increase in dead-cell fraction” value (BSJ-03-123; 0.01 µM) was -0.0014, the “increase in dead-cell fraction” value (BSJ-03-123; 0.03162 µM) was 0.0058 and the “increase in dead-cell fraction” value (BSJ-03-123; 0.1 µM) was 0.007. The “increase in dead-cell fraction” value (BSJ-03-123; 0.3162 µM) was 0.0046, the “increase in dead-cell fraction” value (BSJ-03-123; 1 µM) was 0.0134 and the “increase in dead-cell fraction” value (BSJ-03-123; 3.162 µM) was 0.0379. The “increase in dead-cell fraction” value (BSJ-03-123; 10 µM) was 0.0921, the “increase in dead-cell fraction” value (LEE011/Ribociclib; 0.001 µM) was -0.003 and the “increase in dead-cell fraction” value (LEE011/Ribociclib; 0.003162 µM) was 0.001. The “increase in dead-cell fraction” value (LEE011/Ribociclib; 0.01 µM) was 0.0024, the “increase in dead-cell fraction” value (LEE011/Ribociclib; 0.03162 µM) was 0 and the “increase in dead-cell fraction” value (LEE011/Ribociclib; 0.1 µM) was -0.0008. For the same cell line, the “increase in dead-cell fraction” value (LEE011/Ribociclib; 0.3162 µM) was -0.0059, the “increase in dead-cell fraction” value (LEE011/Ribociclib; 1 µM) was 0.0038 and the “increase in dead-cell fraction” value (LEE011/Ribociclib; 3.162 µM) was 0.0003. The “increase in dead-cell fraction” value (LEE011/Ribociclib; 10 µM) was -0.0071.
